According to US8318899B2, “Lytic domain fusion constructs and methods of making and using same” (Board of Supervisors of Louisiana State University and …, priority 2008, dated 2012):
“Also recorded” adds a separate entry of the source.

Legend:
MDA-MB-435S.luc cells = assay: Cell toxicity (MTT) screening in MDA-MB-435S.luc breast cancer cells; format: cell-based, human; settings: relative to Phor21-βCG-ala (IC50 2.31 μM)
From the text: The human breast cancer cell line MDA-MB-435S.luc, which over expresses chorionic gonadotrophin (CG) and luteinizing hormone-releasing hormone (LHRH) receptors, was used to screen at passage numbers 248-252. The MDA-MB-435S.luc cell line was constructed from the MDA-MB-435S cell line obtained from the American Type Cell Culture Collection by stable transfection with the plasmid PRC/CMV-luc containing the Photinus pyralis luciferase gene and an […] by lipofection. The stably transfected cell line was selected using G418 and the clones with the highest expression for the luciferase gene were tested for their LH and LHRH receptor expression.
MDA-MB435S.luc cells were grown in Leibovitz's L 15 medium, 10% fetal bovine serum, 0.01 mg/ml bovine insulin, 100 IU/ml penicillin, 100 microg/ml streptomycin. The cells were cultured in tight closed flasks. The incubations were conducted using 96 well plates at 10,000 cells per well. Cells were typically seeded into 96 well plates and media was replaced after 48 hours of incubation. Each assay was conducted at increasing concentrations of 0, 0.001, 0.01, 0.05, 0.1, 0.5, 1, 2, 5, 10 and 100 micromolar doses of lytic peptide-binding domain conjugate. […]
Data were processed and analyzed using Graph Pad Prizm 4™ software (Graph Pad Prizm, Inc). Statistical analysis for significance was determined by a two-tailed Student's T-test. […]

NIH:3T3 = format: cell-based, mouse; settings: non cancerous cell line 3T3
Description: The breast cancer cell lines studied were MDA-MB435S (estrogen receptor alpha negative), MCF-7 and T47D (estrogen receptor alpha positive), ovarian cancer cell lines (OVCAR-3 and SKOV-3), prostate cancer (LNCaP), the non-malignant breast epithelial cell line MCF-10A and the mouse fibroblast cell line NIH:3T3.
Cells were seeded into 96 well plates at a density of 10,000 cells/well. […] Controls contained USP saline or 0.1% TritonX-100™ as reference for 0 and 100% cell death, respectively. Incubations were terminated by removing the culture media after 2 minutes, 5 minutes, 15 minutes, 30 minutes, 1 hour, 2 hours, 6 hours, 24 and 48 hours. Cell viability was assessed through formazan conversion assay (MTT assay, (CellTiter 96 Aqueous One, Promega # G3582). Formazan conversion was determined using a BioRad Benchmark Plus microplate spectrophotometer dual wavelengths at 490/630 nm at room temperature).
Data were calculated as fraction of absorption in TritonX-100™ containing wells representing 100% cell death versus 0% cell death in saline containing wells. Cytotoxicity was determined as IC50 using GraphPad Prism version 5.01 for Windows, GraphPad Software, San Diego Calif. […] 4 wells of each individual set of two 96 well plates were compared and analyzed. Statistical analysis for significance was determined by a two-tailed Student's T-test.

MDA-MB-435S xenograft [1] = assay: MDA-MB-435S xenograft, once weekly for 3 weeks (minimal effective dose); format: in vivo, Nu/Nu mice; settings: H&E
Description: In vivo efficacy studies were conducted as monotherapy, or a combination therapy with standard of care treatments in nude mice bearing human breast cancer xenografts: MDA-MB435S.luc (s.c.), MCF-7 (estrogen receptor alpha positive), human ovarian cancer xenografts: OVCAR-3, (s.c.), human prostate cancer xenografts: PC-3 (androgen receptor negative).
Mice were sacrificed one week after the last injection and blood collected for chemistry panel, tumor weights and body weights were recorded. Part of the tumors were fixed in PBS buffered 10% formalin for histological evaluation.
To determine the minimal effective dose necessary to reduce MDA-MB-435S xenograft weights in a single dose regimen, Nu/Nu female mice, outbred strain, age 5 weeks (Charles River), were injected (s.c.) into the interscapular region with a MDA-MB435S (passage #249)/Matrigel suspension (2.4×10^6 cells/mouse) [Leuschner 2006].
Each group consisted of 16 mice, which were injected once a week for 3 weeks. […] During the entire study tumor volumes were recorded twice weekly. […]
Treatment response was determined by tumor weights and tumor weight change at necropsy compared to saline controls and untargeted CLIP71 treatment. […] Statistical evaluation of data sets were conducted in GraphPad Prizm 4 and significance calculated by Wilcoxon signed-rank test.

MDA-MB435S xenograft = assay: MDA-MB435S xenograft, multiple dose regimen; format: in vivo, Nu/Nu mice; settings: 0.002 and 0.2 mg/kg, multiple i.v. injections
Description: In order to determine the minimal effective dose necessary to reduce MDA-MB435S xenograft weights in a multiple dose regimen, Nu/Nu female mice, outbred strain, age 8 weeks (Charles River), were injected (s.c.) into the interscapular region with a MDA-MB435S (passage #253)/Matrigel suspension (2×10^6 cells/mouse) as previously described above. […] The doses were given as a single bolus intravenous injection via lateral tail vein on days 15, 16, 17, 20, 21, 22, 23, 27, 28, 29, 30, 33, 34, 35, 36, 37, 38, 40, 41, 42 after tumor cell inoculation. Saline injections served as control groups.
Each treatment group consisted of 16 mice. During the entire study tumor volumes were recorded twice weekly. Final necropsy was conducted on day 45 after tumor cell injection. […] due to occlusion of the tail vein in most mice. At study endpoint body weight, tumor weights were determined and fixed in phosphate buffered 10% formalin.

MDA-MB-435S xenograft [2] = assay: MDA-MB-435S xenograft, kinetics after a single injection; format: in vivo, Nu/Nu mice; settings: single i.v. injection 0.2 and 2 mg/kg
Description: In brief, Nu/Nu female mice, outbred strain, age 5 weeks (Charles River), were injected (s.c.) into the interscapular region with a MDA-MB-435 S (passage #249)/Matrigel suspension (2.4×10^6 cells/mouse) as described in Example 10. […] The doses were given as a single bolus intravenous injection via lateral tail vein.
Mice were sacrificed 1, 2 and 16 hours after treatment with Phor 18-LHRH (338613) or saline. At study endpoint body weight, tumor weights were determined and tumors were fixed in phosphate buffered 10% formalin.

## KFAKFAKKFAKFAKKFAKQHWSYGLRPG [Phor18-LHRH]
MDA-MB-435S.luc cells
  Increased in vitro activity fold (IC50 of 33/IC50 peptide): 2.65 fold
NIH:3T3
  IC50: > 10 µM
MDA-MB-435S xenograft [1]
  dose with significant necrosis in tumors (histology): 0.0002 mg/kg
MDA-MB435S xenograft
  tumor response: tumor regression at both dose levels; also recorded: eradication of tumor cells
MDA-MB-435S xenograft [2]
  time after injection to destruction of tumors (histology): 1 hour
